Assay results: patent publication US20150313228A1, “SYNERGISTIC HERBICIDAL COMBINATIONS AND METHODS OF USE” (priority 2012, published 2015)

Columns and labels:
Format in all cases: in vivo
[1] = test system: Johnsongrass; test: Pre-emergence application in Johnsongrass under greenhouse conditions (Example 5); details: 16 days after application
Excerpt: (§1) The following testing protocol was employed to evaluate the pre-emergence application of herbicides and herbicide combinations as described in the following examples unless otherwise specified. The weed species to be treated were planted in 3.5 inch pots containing a 50:50 silt loam:redi-earth soil mix. Immediately after such planting (i.e., pre-emergence), herbicide was applied to the soil mix at the specified application rate using a track sprayer with a flat even nozzle type, 9501E nozzle size, and spray pressure of 165 kPa. All herbicides were incorporated into the germination zone with 0.25 inch of overhead irrigation three days after spraying. Additional sub-irrigation was provided to achieve adequate soil moisture for germination. After the incorporation of the herbicide(s), the pots were only overhead irrigated as needed. Throughout the test period, temperature was maintained from about 20° C. to about 30° C. and relative humidity was maintained at about 30%. The plants were rated visually and percentage of weed control was determined for each treatment at 19 days after herbicide application.
Pre-emergence application of several herbicides and herbicide combinations was evaluated in Johnsongrass under greenhouse conditions. The plants were rated visually and percentage of weed control was determined at 16 days after herbicide application. The herbicides and herbicide combinations evaluated are listed in Table 5-A below together with the corresponding percent control data. The data represent an average value (n=6).
The results of the analysis are reported below in Table 5-B (dicamba+metribuzin), Table 5-C(acetochlor+metribuzin), and Table 5-D (acetochlor+dicamba).

[2] = test system: wild Proso millet; test: Pre-emergence application in wild Proso millet under greenhouse conditions (Example 3); details: 16 days after application
Excerpt: as §1
Pre-emergence application of several herbicides and herbicide combinations was evaluated in wild Proso millet under greenhouse conditions. The plants were rated visually and percentage of weed control was determined at 16 days after herbicide application. The herbicides and herbicide combinations evaluated are listed in Table 3-A below together with the corresponding percent control data. The data represent an average value (n=6).
The results of the analysis are reported below in Table 3-B (dicamba+metribuzin), Table 3-C (acetochlor+metribuzin), and Table 3-D (acetochlor+dicamba).

[3] = test system: sicklepod; test: Pre-emergence application in sicklepod under greenhouse conditions (Example 4); details: 18 days after application
Excerpt: as §1
Pre-emergence application of several herbicides and herbicide combinations was evaluated in sicklepod under greenhouse conditions. The plants were rated visually and percentage of weed control was determined at 18 days after herbicide application. The herbicides and herbicide combinations evaluated are listed in Table 4-A below together with the corresponding percent control data. The data represent an average value (n=6).
The results of the analysis are reported below in Table 4-B (dicamba+metribuzin), Table 4-C(acetochlor+metribuzin), and Table 4-D (acetochlor+dicamba).

[4] = test system: ryegrass; test: Pre-emergence application in ryegrass under greenhouse conditions (Example 6); details: 16 days after application
Excerpt: as §1
Pre-emergence application of several herbicides and herbicide combinations was evaluated in ryegrass under greenhouse conditions. The plants were rated visually and percentage of weed control was determined at 16 days after herbicide application. The herbicides and herbicide combinations evaluated are listed in Table 6-A below together with the corresponding percent control data. The data represent an average value (n=6).
The results of the analysis are reported below in Table 6-B (dicamba+metribuzin), Table 6-C(acetochlor+metribuzin), and Table 6-D (acetochlor+dicamba).

[5] = test system: morning glory; test: Pre-emergence application in morning glory under greenhouse conditions (Example 2); details: 18 days after application
Excerpt: as §1
Pre-emergence application of several herbicides and herbicide combinations was evaluated in morning glory under greenhouse conditions. The plants were rated visually and percentage of weed control was determined at 18 days after herbicide application. The herbicides and herbicide combinations evaluated are listed in Table 2-A below together with the corresponding percent control data. The data represent an average value (n=6).
The results of the analysis are reported below in Table 2-B (dicamba+metribuzin), Table 2-C(acetochlor+metribuzin), and Table 2-D (acetochlor+dicamba).

[6] = test system: Palmer amaranth; test: Pre-emergence application in Palmer amaranth under greenhouse conditions (Example 1); details: 18 days after application
Excerpt: as §1
Pre-emergence application of several herbicides and herbicide combinations was evaluated in Palmer amaranth under greenhouse conditions. The plants were rated visually and percentage of weed control was determined at 18 days after herbicide application. The herbicides and herbicide combinations evaluated are listed in Table 1-A below together with the corresponding percent control data. The data represent an average value (n=6).
The results of the analysis are reported below in Table 1-B (dicamba+metribuzin), Table 1-C(acetochlor+metribuzin), and Table 1-D (acetochlor+dicamba).

[7] = test system: velvetleaf; test: Post-emergence application in velvetleaf under greenhouse conditions (Example 8)
Excerpt: (§2) The following testing protocol was employed to evaluate the post-emergence application of herbicides and herbicide combinations as described in the following examples unless otherwise specified. The weed species to be treated were planted in 3.5 inch pots containing redi-earth potting mix and grown under greenhouse conditions. When the weed species reached a height of about four inches, herbicide was applied at the specified application rate using a track sprayer with a flat even nozzle type, 9501E nozzle size, and spray pressure of 165 kPa. After the application of the herbicide(s), the pots were only sub-irrigated as needed. Throughout the test period, temperature was maintained from about 20° C. to about 30° C. and relative humidity was maintained at about 30%. The plants were rated visually and percentage of weed control was determined for each treatment at 15 to 21 days after herbicide application.
Post-emergence application of several herbicides and herbicide combinations was evaluated in velvetleaf under greenhouse conditions. The plants were rated visually and percentage of weed control was determined at 24 days after herbicide application. The herbicides and herbicide combinations evaluated are listed in Table 8-A below together with the corresponding percent control data. The data represent an average value (n=6).
The results of the analysis are reported below in Table 8-B (glyphosate+dicamba), Table 8-C(glyphosate+metribuzin), and Table 8-D (dicamba+metribuzin).

[8] = test system: Palmer amaranth; test: Post-emergence application in Palmer amaranth under greenhouse conditions (Example 7); details: 24 days after application
Excerpt: as §2
Post-emergence application of several herbicides and herbicide combinations was evaluated in Palmer amaranth under greenhouse conditions. The plants were rated visually and percentage of weed control was determined at 24 days after herbicide application. The herbicides and herbicide combinations evaluated are listed in Table 7-A below together with the corresponding percent control data. The data represent an average value (n=6).
The results of the analysis are reported below in Table 7-B (glyphosate+dicamba), Table 7-C(glyphosate+metribuzin), and Table 7-D (dicamba+metribuzin).

Compound: CCOCN(C(=O)CCl)c1c(C)cccc1CC [Acetochlor, 2-chloro-N-(ethoxymethyl)-6′-ethyl-o-acetotoluidide]
- PERCENT CONTROL ([1]; 840 g/ha): 94.8%
- PERCENT CONTROL ([1]; 1260 g/ha): 100.0%
- PERCENT CONTROL ([2]; 840 g/ha): 74.2%
- PERCENT CONTROL ([2]; 1260 g/ha): 84.0%
- PERCENT CONTROL ([3]; 840 g/ha): 4.0%
- PERCENT CONTROL ([3]; 1260 g/ha): 5.8%
- PERCENT CONTROL ([4]; 840 g/ha): 82.5%
- PERCENT CONTROL ([4]; 1260 g/ha): 86.7%
- PERCENT CONTROL ([5]; 840 g/ha): 5.0%
- PERCENT CONTROL ([5]; 1260 g/ha): 7.5%
- PERCENT CONTROL ([6]; 840 g/ha): 65.8%
- PERCENT CONTROL ([6]; 1260 g/ha): 90.8%

Compound: COc1c(Cl)ccc(Cl)c1C(=O)O [Dicamba, 3,6-dichloro-2-methoxy benzoic acid]
- PERCENT CONTROL ([1]; 280 g/ha): 71.7%
- PERCENT CONTROL ([1]; 560 g/ha): 83.3%
- PERCENT CONTROL ([2]; 280 g/ha): 43.3%
- PERCENT CONTROL ([2]; 560 g/ha): 74.2%
- PERCENT CONTROL (ACTUAL) ([7]; 280 g/ha, 24 days after application): 82.0%
- PERCENT CONTROL (ACTUAL) ([7]; 560 g/ha, 24 days after application): 95.0%
- PERCENT CONTROL (ACTUAL) ([7]; Table 8-D, velvetleaf, 24 days, dose 280 g/ha): 82.0%
- PERCENT CONTROL (ACTUAL) ([7]; Table 8-D, velvetleaf, 24 days, dose 560 g/ha): 95.0%
- PERCENT CONTROL ([3]; 280 g/ha): 42.0%
- PERCENT CONTROL ([3]; 560 g/ha): 84.0%
- PERCENT CONTROL ([4]; 280 g/ha): 31.7%
- PERCENT CONTROL ([4]; 560 g/ha): 56.7%
- PERCENT CONTROL ([5]; 280 g/ha): 38.0%
- PERCENT CONTROL ([5]; 560 g/ha): 81.7%
- PERCENT CONTROL ([6]; 280 g/ha): 88.3%
- PERCENT CONTROL ([6]; 560 g/ha): 84.2%
- PERCENT CONTROL ([8]; 280 g/ha): 100.0%
- PERCENT CONTROL ([8]; 560 g/ha): 100.0%

Compound: CSc1nnc(C(C)(C)C)c(=O)n1N [Metribuzin, 4-amino-6-(1,1-dimethylethyl)-3-(methylthio)-1,2,4-triazin-5(4H)-one]
- PERCENT CONTROL ([1]; 420 g/ha): 84.2%
- PERCENT CONTROL ([1]; 840 g/ha): 100.0%
- PERCENT CONTROL ([2]; 420 g/ha): 100.0%
- PERCENT CONTROL ([2]; 840 g/ha): 100.0%
- PERCENT CONTROL (ACTUAL) ([7]; Table 8-C, velvetleaf, 24 days, dose 420 g/ha): 22.0%
- PERCENT CONTROL (ACTUAL) ([7]; Table 8-C, velvetleaf, 24 days, dose 840 g/ha): 68.0%
- PERCENT CONTROL (ACTUAL) ([7]; Table 8-D, velvetleaf, 24 days, dose 420 g/ha): 22.0%
- PERCENT CONTROL (ACTUAL) ([7]; Table 8-D, velvetleaf, 24 days, dose 840 g/ha): 68.0%
- PERCENT CONTROL ([3]; 420 g/ha): 56.7%
- PERCENT CONTROL ([3]; 840 g/ha): 100.0%
- PERCENT CONTROL ([4]; 420 g/ha): 33.3%
- PERCENT CONTROL ([4]; 840 g/ha): 66.7%
- PERCENT CONTROL ([5]; 420 g/ha): 16.7%
- PERCENT CONTROL ([5]; 840 g/ha): 63.8%
- PERCENT CONTROL ([6]; 420 g/ha): 100.0%
- PERCENT CONTROL ([6]; 840 g/ha): 100.0%
- PERCENT CONTROL ([8]; 420 g/ha): 20.0%
- PERCENT CONTROL ([8]; 840 g/ha): 26.0%
